For the test, the target named is Chymotrypsinogen A (Bos taurus) (UniProt P00766). Put plainly: Inhibition of bovine alpha-Chymotrypsin up to 25 ug/ml using Ala-Ala-Phe-p-nitroanilide as substrate preincubated for 15 mins followed by substrate addition and measured after 1 hr by colorimetric method.

Calls of active or inactive are those of the source. The calls are words filed in the database; no cut-off is given here.

Take `COC1=C(Br)[C@H](O)[C@@]2(C=C1Br)CC(C(=O)NCCc1c[nH]cn1)=NO2`: the inhibition result was “inactive”.

Consider `COC1=C(Br)[C@@H](O)[C@]2(C=C1Br)CC(C(=O)NCCCc1cnc(N)[nH]1)=NO2`, for which the inhibition entry is “inactive”.

With `COC(=O)C(O)CNC(=O)C1=NO[C@]2(C=C(Br)C(OC)=C(Br)[C@@H]2O)C1` (some centres not stated), the inhibition result was “inactive”.

Consider `COC(=O)C1=NO[C@]2(C=C(Br)C(OC)=C(Br)[C@@H]2O)C1`, for which the inhibition entry is “inactive”.

For the compound `COC(=O)CNC(=O)C1=NO[C@]2(C=C(Br)C(OC)=C(Br)[C@@H]2O)C1`, the inhibition entry was “inactive”.

In the case of `COC1=C(Br)[C@H](O)[C@@]2(C=C1Br)CC(C(=O)NCCCOc1c(Br)cc(C/C(=N\O)C(=O)NCCc3c[nH]cn3)cc1Br)=NO2`, the inhibition result was “inactive”.

Turning to `COc1c(Br)cc(C/C(=N\O)C(=O)NCCc2c[nH]cn2)c(O)c1Br`, the inhibition result is “inactive”.
